This is an account of results in ChEMBL document CHEMBL3259796, “Synthesis and in-vivo hypolipidemic activity of some novel substituted phenyl isoxazol phenoxy acetic acid derivatives” (Bioorg Med Chem Lett, 2014).

Series [1] is described as follows: Retardation factor of the compound using chloroform/methanol at 4:1 ratio. It counts as physicochemical.
Series [2] in a line: Retardation factor of the compound using ethyl acetate/n-hexane at 1:1 ratio. Format: physicochemical.
Series [3] relates to Rattus norvegicus. The experiment in a line: Hypolipidemic activity in triton WR-1339 Wistar rat assessed as high-density lipoprotein at 250 mg/kg, po for 7 days (reference value: 17 +/- 1.70 mg/dl). Format: functional.
The test system of series [4] is Rattus norvegicus. The experiment in a line: Hypolipidemic activity in triton WR-1339 Wistar rat assessed as increase in protection at 250 mg/kg, po for 7 days. Format: functional.
The subject of series [5] is Rattus norvegicus. The experiment in a line: Hypolipidemic activity in triton WR-1339 Wistar rat assessed as total cholesterol at 250 mg/kg, po for 7 days (reference value: 209 +/- 1.45 mg/dl). It counts as functional.
The subject of series [6] is Rattus norvegicus. Description: Hypolipidemic activity in triton WR-1339 Wistar rat assessed as low-density lipoprotein at 250 mg/kg, po for 7 days (reference value: 154 +/- 1.82 mg/dl). It counts as functional.
The test system of series [7] is Rattus norvegicus. The experiment in a line: Hypolipidemic activity in triton WR-1339 Wistar rat assessed as atherogenic index at 250 mg/kg, po for 7 days (reference value: 10.18 no unit). Format: functional.
The subject of series [8] is Rattus norvegicus. Description: Hypolipidemic activity in triton WR-1339 Wistar rat assessed as triglyceride at 250 mg/kg, po for 7 days (reference value: 190 +/- 1.98 mg/dl). Format: functional.
Series [9] has as its system Rattus norvegicus. Description: Hypolipidemic activity in triton WR-1339 Wistar rat assessed as very low-density lipoprotein at 250 mg/kg, po for 7 days (reference value: 38 +/- 1.80 mg/dl). Format: functional.

For the compound `O=C(/C=C/c1ccco1)c1ccc(O)cc1`, in series [1], the Rf is 0.61.

Turning to `O=C(/C=C/c1ccccc1O)c1ccccc1`, in series [1], the Rf was determined as 0.49.

Regarding `COc1cc(/C=C/C(=O)c2ccc(O)cc2)cc(OC)c1OC`, in [1], the Rf amounted to 0.48.

For the compound `O=C(/C=C/c1ccccc1Cl)c1ccc(O)cc1`, the Rf in [1] is 0.6.

`O=C(/C=C/c1ccc(O)cc1)c1ccc(F)cc1`: in series [1], the Rf worked out at 0.62.

For `COc1ccccc1/C=C/C(=O)c1ccc(O)cc1`, in [1], the Rf worked out at 0.51.

In the case of `COc1cc(-c2cc(-c3ccccc3)on2)ccc1O`, the Rf in series [2] was 0.57.

For `Oc1ccccc1-c1cc(-c2ccccc2)on1`, in [2], the Rf was determined as 0.6.

For `Oc1ccc(-c2cc(-c3ccc(F)cc3)on2)cc1`, in series [2], the Rf was determined as 0.5.

Consider `COc1ccccc1-c1cc(-c2ccc(O)cc2)on1`, for which the Rf in series [2] was determined as 0.59.

Consider `COc1cc(-c2cc(-c3ccc(O)cc3)on2)cc(OC)c1OC`, for which the Rf in [2] was 0.63.

For `Oc1ccc(-c2cc(-c3ccccc3Cl)no2)cc1`, in series [2], the Rf turned out to be 0.6.

As for `Oc1ccc(-c2cc(-c3c(Cl)cccc3Cl)no2)cc1`, the Rf in series [2] came out at 0.58.

With `Oc1ccc(-c2cc(-c3ccco3)no2)cc1`, in series [2], the Rf is 0.61.

On to `Oc1ccc(-c2cc(-c3ccccc3)no2)cc1`, for which, in [2], the Rf stood at 0.56.

For `Oc1ccc(-c2cc(-c3ccc(Cl)cc3)no2)cc1`, the Rf in series [2] is reported as 0.6.

As for `COc1cc(-c2cc(-c3ccccc3)on2)ccc1OCC(=O)O`, the Activity is 46 mg/dL with Rattus norvegicus [3]; 85.27% in the series with Rattus norvegicus [4]; 94 mg/dL with Rattus norvegicus [5]; 25 mg/dL in the series on Rattus norvegicus [6]; 115 mg/dL in the series on Rattus norvegicus [8]; 23 mg/dL with Rattus norvegicus [9]. Also, the Rf in [2] was 0.56. Also, the AI in the series with Rattus norvegicus [7] is given as 1.5.

With `O=C(O)COc1ccccc1-c1cc(-c2ccccc2)on1`, the Activity in the series with Rattus norvegicus [3] was determined as 42.5 mg/dL; in the series on Rattus norvegicus [4], 81.24%; in the series on Rattus norvegicus [5], 91 mg/dL; with Rattus norvegicus [6] it was 23.3 mg/dL; with Rattus norvegicus [8] it was 123.5 mg/dL; in the series on Rattus norvegicus [9], 25.2 mg/dL. Further, the Rf in [2] was found to be 0.52. Besides, the AI in the series on Rattus norvegicus [7] amounted to 1.91.

As to `O=C(O)COc1ccc(-c2cc(-c3ccc(F)cc3)on2)cc1`, the Activity with Rattus norvegicus [3] came to 43.5 mg/dL; with Rattus norvegicus [4], 85.95%; in the series on Rattus norvegicus [5] it was 81 mg/dL; in the series with Rattus norvegicus [6], 16.4 mg/dL; with Rattus norvegicus [8] it was 105.5 mg/dL; in the series with Rattus norvegicus [9], 21.1 mg/dL. Moreover, in series [2], the Rf is given as 0.52. Further, the AI in the series with Rattus norvegicus [7] is on record as 1.43.

Consider `COc1ccccc1-c1cc(-c2ccc(OCC(=O)O)cc2)on1`, for which the Activity in the series on Rattus norvegicus [3] worked out at 44.5 mg/dL; in the series with Rattus norvegicus [4], 83.89%; in the series on Rattus norvegicus [5] it was 77.5 mg/dL; with Rattus norvegicus [6] it was 10.5 mg/dL; in the series with Rattus norvegicus [8], 117.5 mg/dL; in the series on Rattus norvegicus [9], 23.5 mg/dL. In addition, the Rf in series [2] turned out to be 0.45. For the same compound, in the series on Rattus norvegicus [7], the AI came to 1.64.

As to `COc1cc(-c2cc(-c3ccc(OCC(=O)O)cc3)on2)cc(OC)c1OC`, the Activity is 40.5 mg/dL with Rattus norvegicus [3]; 79.47% with Rattus norvegicus [4]; 82.5 mg/dL in the series with Rattus norvegicus [5]; 29 mg/dL with Rattus norvegicus [6]; 125 mg/dL with Rattus norvegicus [8]; 25.5 mg/dL with Rattus norvegicus [9]. The Rf in [2] was found to be 0.51. For the same compound, in the series with Rattus norvegicus [7], the AI is 2.09.

Take `O=C(O)COc1ccc(-c2cc(-c3ccccc3Cl)no2)cc1`: the Activity was determined as 40 mg/dL in the series on Rattus norvegicus [3]; 82.81% in the series with Rattus norvegicus [4]; 148.5 mg/dL with Rattus norvegicus [5]; 86.5 mg/dL with Rattus norvegicus [6]; 110 mg/dL with Rattus norvegicus [8]; 22 mg/dL in the series with Rattus norvegicus [9]. In addition, the Rf in [2] turned out to be 0.48. Also, the AI in the series with Rattus norvegicus [7] came out at 1.75.

In the case of `O=C(O)COc1ccc(-c2cc(-c3c(Cl)cccc3Cl)no2)cc1`, the Activity in the series on Rattus norvegicus [3] stood at 44.5 mg/dL; with Rattus norvegicus [4], 84.77%; with Rattus norvegicus [5], 90 mg/dL; with Rattus norvegicus [6], 22.8 mg/dL; in the series with Rattus norvegicus [8], 113.5 mg/dL; in the series with Rattus norvegicus [9], 22.7 mg/dL. Further, the Rf in [2] is 0.5. The AI in the series with Rattus norvegicus [7] is 1.55.

As for `O=C(O)COc1ccc(-c2cc(-c3ccco3)no2)cc1`, the Activity in the series with Rattus norvegicus [3] was 42 mg/dL; in the series on Rattus norvegicus [4] it was 83.4%; in the series on Rattus norvegicus [5] it was 87 mg/dL; in the series on Rattus norvegicus [6], 22.4 mg/dL; with Rattus norvegicus [8] it was 113 mg/dL; in the series with Rattus norvegicus [9], 22.6 mg/dL. Besides, the Rf in series [2] came to 0.46. Further, in the series with Rattus norvegicus [7], the AI was found to be 1.69.

On to `O=C(O)COc1ccc(-c2cc(-c3ccccc3)no2)cc1`, for which the Activity in the series with Rattus norvegicus [3] stood at 40.5 mg/dL; with Rattus norvegicus [4], 77.8%; with Rattus norvegicus [5], 88 mg/dL; in the series with Rattus norvegicus [6], 11.1 mg/dL; in the series with Rattus norvegicus [8], 132 mg/dL; with Rattus norvegicus [9], 26.4 mg/dL. In series [2], the Rf is recorded as 0.56. Moreover, the AI with Rattus norvegicus [7] is 2.26.

Consider `O=C(O)COc1ccc(-c2cc(-c3ccc(Cl)cc3)no2)cc1`, for which the Activity with Rattus norvegicus [3] was 41 mg/dL; with Rattus norvegicus [4] it was 78.29%; in the series with Rattus norvegicus [5], 83.5 mg/dL; in the series with Rattus norvegicus [6], 16.2 mg/dL; in the series on Rattus norvegicus [8], 131.5 mg/dL; in the series on Rattus norvegicus [9] it was 26.3 mg/dL. Also, in series [2], the Rf came to 0.53. For the same compound, the AI in the series with Rattus norvegicus [7] is 2.21.

For `COc1cc(/C=C/C(=O)c2ccccc2)ccc1O`, the Rf in series [1] worked out at 0.54.

`O=C(/C=C/c1ccc(Cl)cc1)c1ccc(O)cc1`: in series [1], the Rf was 0.56.

With `O=C(/C=C/c1c(Cl)cccc1Cl)c1ccc(O)cc1`, the Rf in series [1] worked out at 0.52.

For `O=C(/C=C/c1ccccc1)c1ccc(O)cc1` [4'-HYDROXYCHALCONE], the Rf in [1] turned out to be 0.53.

Take `CC(C)OC(=O)C(C)(C)Oc1ccc(C(=O)c2ccc(Cl)cc2)cc1` [FENOFIBRATE]: the Activity in the series on Rattus norvegicus [3] is 44.5 mg/dL; in the series on Rattus norvegicus [4], 83.6%; with Rattus norvegicus [5] it was 116.5 mg/dL; in the series on Rattus norvegicus [6], 48.2 mg/dL; with Rattus norvegicus [8] it was 119 mg/dL; in the series on Rattus norvegicus [9] it was 23.8 mg/dL.
